Reference: US8883167B2, “Ethanol extract of Antrodia camphorata for inducing apoptosis and preparation method thereof” (Kaohsiung Medical University, priority 2009, dated 2014)
≈ marks a conversion by molar mass, not a printed value.

Tested on: HL 60 cells
Assay: MTT cytotoxicity / antiproliferative assay on HL 60 cells
Type: cell-based
Settings: Homo sapiens, Embodiment 1, 24 hours, read-out: 50% inhibition concentration (IC50) on HL 60 cells by MTT assay
Protocol: Human leukemia HL 60 cell line was purchased from American Type Culture Collection (ATCC, Manassas, Va.) and incubated in RPMI 1640 medium supplemented with 10% fetal calf serum, 2 mM glutamine, 100 units/ml penicillin and 100 μg/ml streptomycin at 37° C. in a humidified atmosphere of 5% carbon dioxide.
Cell viability was determined by the trypan blue dye exclusion and cytotoxicity was assessed by MTT assay. First, 1×10^5 HL 60 cells were plated in 96-well plates and treated with different concentrations of EEAC dissolved in dimethyl sulfoxide (DMSO) at the concentrations of 0 to 150 μg/ml for 24 hours. Death cells then were stained with trypan blue, and the survival cells were calculated with hemocytometer. In MTT assay, 1.2 mg/ml MTT was added in each well, which was incubated for 2 hours to form […], formazan. Formazan was dissolved in DMSO, and absorbance was detected at a wavelength of 570 nm.

## C=C(CC[C@@H](C)C1CCC2C3=C(C(=O)CC21C)C1(C)CCC(=O)[C@@H](C)C1CC3=O)C(C)C(=O)O (stereo partly shown) [zhankuic acid A]
  IC50: 5.45 µg/mL (≈ 11.6 µM)
